Reference: patent US5808139A (Ligand Pharmaceuticals Incorporated, priority 1994, dated 1998)
pIC50, pKd: −log10 of the molar value.

Columns and labels:
[1] = test system: human progesterone receptor altered at the Tau-1 location; experiment: Co-transfection assay in CV-1 cells, progesterone receptor altered at Tau-1, antagonist activity; type: cell-based; conditions: for Efficacy (% maximal response relative to RU-486), CV-1 cells: antagonist activity; for pIC50: concentration required to reduce the maximal response by 50%, read-out: Potency (IC50), CV-1 cells
Text: This assay is described in further detail in U.S. Pat. Nos. 4,981,784 and 5,071,773, which are incorporated herein by reference. The co-transfection assay provides a method for identifying functional ligands (either agonists which mimic, or antagonists which inhibit, the effect of hormones) for ligand-responsive receptor proteins.
The co-transfection assay provides a mechanism to evaluate ability of a compound to function as an agonist or antagonist of the activity modulated by an intracellular receptor. The co-transfection assay mimics an in vivo system in the laboratory. In the co-transfection assay, a cloned gene for an intracellular receptor is introduced by transfection (a procedure to induce cells to take up foreign genes) into a background cell substantially devoid of endogenous intracellular receptors. This introduced gene directs the recipient cells to make the intracellular receptor protein. A second gene is also introduced (co-transfected) into the same cells in conjunction with the intracellular receptor gene. This second gene functions as a reporter for the transcription-modulating activity of the target intracellular receptor. The reporter acts as a surrogate for the products normally expressed by a gene under control of the target receptor and its natural hormone.
A preferred reporter gene is one which expresses the firefly enzyme luciferase. The co-transfection assay can detect small molecule agonists or antagonists of target intracellular receptors. Exposing the cells to an agonist ligand increases reporter activity in the transfected cells that can be conveniently measured, reflecting ligand-dependent, intracellular receptor-mediated increases in reporter transcription. To detect antagonists, the co-transfection assay is carried out in the presence of a constant concentration of an agonist known to induce a defined reporter signal. Increasing concentrations of a test antagonist will decrease the reporter signal. The co-transfection assay is therefore useful to detect both agonists and antagonists of specific intracellular receptors. It determines not only whether a compound interacts with a particular intracellular receptor, but also whether this interaction mimics (agonizes) or blocks (antagonizes) the effects of the natural regulatory molecules on target gene expression.
Co-transfected cells are exposed to a medium to which is added the potential ligand that is being evaluated. If the candidate ligand diffuses into the cell and binds to the receptor and the resulting complex functions as an agonist, it binds to the co-transfected reporter gene and initiates transcription. When that gene is one that expresses, for example, luciferase, luciferase is produced which catalyzes a light-emitting reaction with its substrate luciferin. Thus, after cell lysis and the introduction of luciferin, the amount of light produced relative to the concentration of candidate ligand used in the assay provides a measure of the potency and efficacy of the compound tested. Antagonist activity is evaluated by adding the candidate ligand and a known agonist to the co-transfected cells.
The receptor cDNA was introduced in a mammalian expression vector under the control of the Rous Sarcoma virus LTR. […] A reporter vector was also transfected, containing a firefly luciferase gene under the control of the hormone-responsive promoter. […] The level of luciferase activity was then measured in cell extracts. Light emission is directly proportional to the effectiveness of the hormone-receptor complex in activating gene expression.
A total of three replicates per concentration point were tested for each compound, and the EC50 was calculated for each positive response. Both agonist and antagonist activity for each test compound was determined in parallel. […]

[2] = test system: progesterone receptor (T47D cells); experiment: Antagonist assay in T47D (human breast cancer) cells (Tables 1 and 2); type: cell-based; conditions: for Efficacy (% maximal response relative to RU-486), T47D cells: antagonist activity; for pIC50: concentration required to reduce the maximal response by 50%, read-out: Potency (IC50), T47D cells
Text: The functional activities of the cyclocymopol analogues in the human breast cell line, T47D, were also investigated. T47D cells have proven to be a particularly useful model to investigate the molecular actions of sex steroids because they contain endogenous functional receptors for, and respond to, progestins, and their respective antagonists. […] In T47D cells, progestins induce de novo synthesis of a plasma-associated alkaline phosphatase, which has been reported to be similar, if not identical, to the alkaline phosphatase present in the normal breast and human milk. These tests were conducted according to the following illustrative example.
The assay was also run using T47D (human breast cancer) cells.

[3] = biological target: T1, human progesterone receptor (Homo sapiens, UniProt P06401); experiment: Progesterone receptor binding (displacement of 3H-progesterone, whole cell extract of transfected CV-1 cells); parameters: expressed in transfected cells; host or cells: CV-1 cells (calcium phosphate transfection), whole cell extract
T1 sequence (P06401 1-933): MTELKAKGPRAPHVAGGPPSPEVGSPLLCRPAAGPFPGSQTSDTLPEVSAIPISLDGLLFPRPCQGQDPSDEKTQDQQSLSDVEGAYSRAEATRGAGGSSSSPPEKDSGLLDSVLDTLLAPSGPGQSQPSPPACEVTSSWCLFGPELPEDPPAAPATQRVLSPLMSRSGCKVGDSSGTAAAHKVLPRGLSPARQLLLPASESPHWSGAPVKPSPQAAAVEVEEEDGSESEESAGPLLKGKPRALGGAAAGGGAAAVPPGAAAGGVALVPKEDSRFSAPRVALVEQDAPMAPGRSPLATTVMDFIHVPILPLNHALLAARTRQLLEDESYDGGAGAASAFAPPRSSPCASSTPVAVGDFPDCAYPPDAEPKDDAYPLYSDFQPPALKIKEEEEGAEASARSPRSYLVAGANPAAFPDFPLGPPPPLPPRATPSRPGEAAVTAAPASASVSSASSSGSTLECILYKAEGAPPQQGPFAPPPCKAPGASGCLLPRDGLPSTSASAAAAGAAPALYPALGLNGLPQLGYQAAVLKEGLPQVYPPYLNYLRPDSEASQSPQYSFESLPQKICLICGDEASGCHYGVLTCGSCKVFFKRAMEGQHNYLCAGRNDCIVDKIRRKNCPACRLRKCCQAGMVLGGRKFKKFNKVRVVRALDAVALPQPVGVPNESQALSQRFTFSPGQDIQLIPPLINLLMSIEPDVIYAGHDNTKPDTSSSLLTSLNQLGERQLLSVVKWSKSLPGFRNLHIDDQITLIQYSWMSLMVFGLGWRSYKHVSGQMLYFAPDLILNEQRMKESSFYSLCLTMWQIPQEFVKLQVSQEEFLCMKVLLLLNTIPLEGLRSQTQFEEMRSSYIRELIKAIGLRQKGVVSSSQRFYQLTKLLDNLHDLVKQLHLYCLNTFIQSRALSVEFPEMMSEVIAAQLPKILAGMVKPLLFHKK
Procedure: These tests were conducted according to the following illustrative example.
CO2 for 40 hours prior to harvest.
After incubation, cells were harvested and washed in phosphate buffered saline. Whole cell receptor extract was prepared by homogenizing the harvested cells in Tris-HCl buffer, pH=7.4, containing 30% glycerol, 1 mM EDTA, 12 mM monothioglycerol, 1 mM PMSF, and 0.5M potassium chloride. The homogenate was incubated at 4° C. for 60 min with resuspension every 10 min. The suspension was centrifuged (105,000×g, 60 min) and the supernatant was collected and flash frozen in liquid nitrogen and stored frozen at -70° C.
To a […] final volume incubation mixture, […] of 7.5% (w/v) dextran-coated charcoal suspension in gelatin phosphate buffer was added. The mixture was vortexed and incubated at 4° C. for 10 min and then centrifuged at 3000 rpm for 10 min. The amount of bound tritiated hormone was determined by liquid scintillation spectrophotometry of an aliquot of the supernatant. […]

| Compound | pIC50 [1] | pIC50 [2] | pKd [3] | Efficacy (% maximal response relative to RU-486), CV-1 cells [1] [%] | Efficacy (% maximal response relative to RU-486), T47D cells [2] [%] |
| --- | --- | --- | --- | --- | --- |
| C=C1CCCC(C)(C)C1Cc1ccc(Br)cc1 (centres unmarked) [O, 1-Methylidene-2-(4'-bromophenyl)methyl-3,3-dimethylcyclohexane] | 6.00 | 6.07 | 6.35 | 90 | 85 |
| C=C1C=CCC(C)(C)C1Cc1cc(OC)c(Br)cc1O (centres unmarked) [K, 1-Methylidene-6-(2'-hydroxy-4'-bromo-5'-methoxyphenyl)methyl-5,5-dimethylcyclohex-2-ene] |  |  |  | 70 | 70 |
| CC1(C)CC=CC(=O)C1Cc1ccc([N+](=O)[O-])cc1 (centres unmarked) [MM, 6-(4'-Nitrophenyl)methyl-5.5-dimethylcyclohex-2-en-1-one] | 5.75 | 6.41 | 5.00 | 74 | 90 |
| C=C1C(C)=CCC(C)(C)C1Cc1cc(OC)c(Br)cc1OC(C)=O (stereo in doubt) [Z, (3R)-5-Methyl-5,6-dehydro-1-debromocyclocymopol monomethyl ether, acetate] | 6.18 | 6.68 |  | 83 | 81 |
| C=C1C=C(C)CC(C)(C)C1C/C=C/c1cc(OC)c(Br)cc1O (stereo not drawn) [GG, 1-Methylidene-6-[trans-(2'-Hydroxy-4'-bromo-5'-methoxyphenyl)-1-propenyl]-3,5,5-trimethylcyclohex-2-ene] | 5.48 | 5.80 |  | 61 | 65 |
| C=C1CCCC(C)(C)C1Cc1cc(OC)c(Br)cc1OC(C)=O (racemic) [A, 1-Methylidene-2-(2'-acetoxy-4'-bromo-5'-methoxyphenyl)methyl-3,3-dimethylcyclohexane] | 6.65 | 6.70 | 7.00 | 55 | 70 |
| C=C1C=C(C)CC(C)(C)C1Cc1cc(OC)c(Br)cc1OC(C)=O (centres unmarked) [H, 1-Methylidene-6-(2'-acetoxy-4'-bromo-5'-methoxyphenyl)methyl-3,5,5-trimethylcyclohex-2-ene] | 6.15 | 6.11 | 7.22 | 40 | 60 |
| C=C1CCCC(C)(C)C1Cc1cc(OC)c(Br)cc1O (centres unmarked) [C, 1-Methylidene-2-(2'-hydroxy-4'-bromo-5'-methoxy-phenyl)methyl-3.3-dimethylcyclohexane] |  |  |  | 55 | 70 |
| C=C1CCCC(C)(C)C1Cc1cc(OC)c(Br)cc1O (stereo in doubt) [G, (3S)-1-Debromocyclocymopol monomethyl ether] |  |  |  | 45 | 50 |
| C=C1C=C(C)CC(C)(C)C1Cc1ccc2nonc2c1 (centres unmarked) [FF, 1-Methylidene-6-(benzofurazan-5'-yl)methyl-3,5,5-trimethylcyclohex-2-ene] | 5.71 | 6.11 |  | 72 | 71 |

The next lines start with results.

| pIC50 [1] | pIC50 [2] | pKd [3] | Compound | Efficacy (% maximal response relative to RU-486), CV-1 cells [1] [%] | Efficacy (% maximal response relative to RU-486), T47D cells [2] [%] |
| --- | --- | --- | --- | --- | --- |
| 6.40 | 7.07 | 7.46 | C=C1CCCC(C)(C)C1Cc1cc(OC)c(Br)cc1OC(C)=O (stereo in doubt) [B, (3S)-1-Debromocyclocymopol monomethyl ether, acetate] | 45 | 65 |
| 5.96 | 6.68 | 6.42 | C=C1C[C@H](CCCO)CC(C)(C)[C@@H]1Cc1cc(OC)c(Br)cc1O (relative stereo) [X, cis-1-Methylidene-2-(2'-hydroxy-4'-bromo-5'-methoxyphenyl)methyl-3,3-dimethyl-5-(3-hydroxypropyl)cyclohexane] | 99 | 84 |
| 5.82 | 6.40 | 6.46 | C=C1CCCCC1Cc1cc(OC)c(Br)cc1O (centres unmarked) [Compound S, 1-Methylidene-2-(2'-hydroxy-4'-bromo-5'-methoxyphenyl)methylcyclohexane] | 90 | 85 |
| 5.92 | 6.56 | 6.36 | C=C1CCC(C)(C)C1Cc1cc(OC)c(Br)cc1O (centres unmarked) [P, 1-Methylidene-2-(2'-hydroxy-4'-bromo-5'-methoxyphenyl)methyl-3,3-dimethylcyclo-pentane] | 100 | 60 |
| 5.45 |  |  | C=C1C=C(C)CC(C)(C)C1Cc1cc(OC)c(Br)cc1O (centres unmarked) [II, 1-Methylidene-6-(2'-hydroxy-4'-bromo-5'-methoxyphenyl)methyl-3,5,5-trimethylcyclohex-2-ene] |  |  |
